# Reference: paper PMC4322223, “Biochemical and structural characterization of a thermostable β-glucosidase from Halothermothrix orenii for galacto-oligosaccharide synthesis” (Applied Microbiology and Biotechnology, 2014)
# Biological target: T1, HoBGLA (Halothermothrix orenii, UniProt B8CYA8)
# T1 construct: gene Hore_15280; full length, 451 residues, GH1; pNIC28-Bsa4 N-terminal His6-TEV tag cut off with TEV protease; expressed in E. coli BL21(DE3); 53 kDa
# Assay: X-ray crystal structure, […] Å, crystal soaked with cellobionolactam
# Format: binding
# Conditions: pH 5.5; subsite −1, non-covalent, glucose left after cleavage of cellobionolactam
# T1 sequence (B8CYA8 entry or part of it): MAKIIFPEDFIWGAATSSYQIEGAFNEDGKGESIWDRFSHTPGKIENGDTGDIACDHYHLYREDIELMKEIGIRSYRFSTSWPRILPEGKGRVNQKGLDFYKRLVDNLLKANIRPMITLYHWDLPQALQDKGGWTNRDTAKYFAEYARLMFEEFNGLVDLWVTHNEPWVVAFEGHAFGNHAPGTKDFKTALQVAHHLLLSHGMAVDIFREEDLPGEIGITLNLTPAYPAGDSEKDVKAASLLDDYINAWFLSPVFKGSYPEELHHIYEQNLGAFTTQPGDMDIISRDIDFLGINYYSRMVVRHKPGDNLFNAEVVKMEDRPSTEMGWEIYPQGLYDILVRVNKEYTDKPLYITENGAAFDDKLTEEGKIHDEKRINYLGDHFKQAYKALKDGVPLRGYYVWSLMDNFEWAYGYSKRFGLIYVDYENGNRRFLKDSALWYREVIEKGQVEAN
smiles,measurement,value
OC[C@H]1O[C@@H](O)[C@H](O)[C@@H](O)[C@@H]1O [D-glucose],"X-ray crystal structure, 1.80 Å, crystal soaked with cellobionolactam","The crystal structure of HoBGLA in complex with glucose, representing the post-hydrolysis state"
